≈ marks a conversion by molar mass, not a printed value. Each block holds one molecule with its values, some of them ahead of it.
How the values were obtained:
KB = assay: cells; assay type: ADME, cell-based; conditions: Homo sapiens
Description: Cytotoxicity against human KB cells

Plasmodium falciparum [1] = assay: microbe, parasite or virus in culture; assay type: functional, organism-based; conditions: D6
Description: Antiplasmodial activity against Plasmodium falciparum D6

Plasmodium falciparum [2] = assay: microbe, parasite or virus in culture; assay type: functional, organism-based; conditions: W2
Description: Antiplasmodial activity against Plasmodium falciparum W2

[3] = Selectivity index, ratio of IC50 for human KB cells to IC50 for Plasmodium falciparum W2; assay type: toxicity, cell-based; conditions: read-out: Ratio IC50
[4] = Selectivity index, ratio of IC50 for human KB cells to IC50 for Plasmodium falciparum D6; assay type: toxicity, cell-based; conditions: read-out: Ratio IC50

IC50 (KB): > 20 µg/mL | IC50 (Plasmodium falciparum [1]): > 10 µg/mL | IC50 (Plasmodium falciparum [2]): > 10 µg/mL
Compound: C=C(C)C1CC[C@@H]2[C@H]3CCC(C)[C@H]3[C@H]12 (stereo partly drawn)

IC50 (KB): > 20 µg/mL | IC50 (Plasmodium falciparum [1]): > 10 µg/mL | IC50 (Plasmodium falciparum [2]): 8.46 µg/mL (≈ 41.4 µM)
Compound: C=C(C)[C@@H]1C=C2C(C)CC[C@@H]2C(C)CC1 (stereo partly drawn)
selectivity ratio [3]: > 2.3

IC50 (KB): > 20 µg/mL | IC50 (Plasmodium falciparum [1]): > 10 µg/mL | IC50 (Plasmodium falciparum [2]): > 10 µg/mL
Compound: CC(C)=CCC[C@@H](C)[C@H]1CC[C@](C)(N=C=S)[C@H]2CCC(C)=C[C@H]12

IC50 (KB): 2 µg/mL (≈ 5.87 µM) | IC50 (Plasmodium falciparum [1]): 0.0749 µg/mL (≈ 0.22 µM) | IC50 (Plasmodium falciparum [2]): 0.0561 µg/mL (≈ 0.165 µM)
Compound: C[C@@H]1C[C@@H]2C[C@H](C)[C@H]3CC[C@](C)(N=C=O)[C@H]4CC[C@@H]([C@@H]2[C@H]34)[C@]1(C)C#N
selectivity ratio [4]: 27 | selectivity ratio [3]: 36

IC50 (KB): 19.1 µg/mL (≈ 64.2 µM) | IC50 (Plasmodium falciparum [1]): 0.09 µg/mL (≈ 0.303 µM) | IC50 (Plasmodium falciparum [2]): 0.0297 µg/mL (≈ 0.0998 µM)
Compound: C=C(C)/C=C/[C@]12C[C@H](C)[C@H]3CC[C@](C)(C#N)[C@@H](CC[C@H]1C)[C@@H]32
selectivity ratio [4]: 210 | selectivity ratio [3]: 640

IC50 (KB): > 20 µg/mL | IC50 (Plasmodium falciparum [1]): > 10 µg/mL | IC50 (Plasmodium falciparum [2]): > 10 µg/mL
Compound: C=C(C)C1[C@@H]2C(C)CC[C@@H]2[C@@]2(C)CC[C@@H]12 (stereo partly drawn)

IC50 (KB): > 20 µg/mL | IC50 (Plasmodium falciparum [1]): 0.302 µg/mL (≈ 1.02 µM) | IC50 (Plasmodium falciparum [2]): 0.133 µg/mL (≈ 0.447 µM)
Compound: CC(C)=C[C@@H]1C[C@H](C)[C@H]2CC[C@](C)(C#N)[C@H]3CC=C(C)[C@@H]1[C@H]23
selectivity ratio [4]: > 66.2 | selectivity ratio [3]: > 150

IC50 (KB): 14.5 µg/mL (≈ 48.7 µM) | IC50 (Plasmodium falciparum [1]): 0.0741 µg/mL (≈ 0.249 µM) | IC50 (Plasmodium falciparum [2]): 0.0238 µg/mL (≈ 0.08 µM)
Compound: C[C@H]1C[C@H]2CC(C)(C)C=C3CC[C@H]4[C@@H]([C@@H]1CC[C@]4(C)C#N)[C@@H]32
selectivity ratio [4]: 200 | selectivity ratio [3]: 610

IC50 (KB): 18.2 µg/mL (≈ 61.2 µM) | IC50 (Plasmodium falciparum [1]): 0.0625 µg/mL (≈ 0.21 µM) | IC50 (Plasmodium falciparum [2]): 0.0195 µg/mL (≈ 0.0655 µM)
Compound: CC1=C[C@@H]2C[C@H](C)[C@H]3CC[C@](C)(C#N)[C@H]4CC[C@@H]([C@@H]2[C@H]34)[C@@H]1C
selectivity ratio [4]: 290 | selectivity ratio [3]: 930

IC50 (KB): > 20 µg/mL | IC50 (Plasmodium falciparum [1]): 0.0849 µg/mL (≈ 0.285 µM) | IC50 (Plasmodium falciparum [2]): 0.0284 µg/mL (≈ 0.0955 µM)
Compound: C[C@H]1C[C@H]2CC(C)(C)CC3=CC[C@H]4[C@@H]([C@@H]1CC[C@]4(C)C#N)[C@@H]32
selectivity ratio [4]: > 240 | selectivity ratio [3]: > 700

IC50 (KB): 5.3 µg/mL (≈ 15.3 µM) | IC50 (Plasmodium falciparum [1]): 0.797 µg/mL (≈ 2.31 µM) | IC50 (Plasmodium falciparum [2]): 0.423 µg/mL (≈ 1.22 µM)
Compound: C=C1CC[C@H]2[C@H]3[C@H](CC[C@]2(C)N=C=S)[C@@H](C)C[C@H](C=C(C)C)[C@]13O
selectivity ratio [4]: 6.6 | selectivity ratio [3]: 12

IC50 (KB): 15.2 µg/mL (≈ 51.1 µM) | IC50 (Plasmodium falciparum [1]): 0.0585 µg/mL (≈ 0.197 µM) | IC50 (Plasmodium falciparum [2]): 0.0256 µg/mL (≈ 0.0861 µM)
Compound: CC(C)=C[C@H]1C[C@H](C)[C@H]2CC[C@](C)(C#N)[C@H]3CCC(C)=C1[C@H]23
selectivity ratio [4]: 260 | selectivity ratio [3]: 590

IC50 (KB): 1.6 µg/mL (≈ 4.49 µM) | IC50 (Plasmodium falciparum [1]): 0.0451 µg/mL (≈ 0.126 µM) | IC50 (Plasmodium falciparum [2]): 0.0285 µg/mL (≈ 0.0799 µM)
Compound: C[C@@H]1C[C@@H]2C[C@H](C)[C@H]3CC[C@](C)(N=C=S)[C@H]4CC[C@@H]([C@@H]2[C@H]34)[C@]1(C)C#N
selectivity ratio [4]: 35 | selectivity ratio [3]: 56

The next lines start with the molecule.

Compound: COc1ccc(CO)cc1
IC50 (KB): > 20 µg/mL | IC50 (Plasmodium falciparum [1]): > 10 µg/mL | IC50 (Plasmodium falciparum [2]): > 10 µg/mL

Compound: C=C(C)C[C@@H]1C[C@H](C)[C@H]2CC[C@](C)(C#N)[C@H]3CCC(=C)[C@@H]1[C@H]23
IC50 (KB): > 20 µg/mL | IC50 (Plasmodium falciparum [1]): 0.52 µg/mL (≈ 1.75 µM) | selectivity ratio [4]: > 38.5 | IC50 (Plasmodium falciparum [2]): 0.242 µg/mL (≈ 0.813 µM) | selectivity ratio [3]: > 82.6

Compound: C[C@@H]1C[C@@H]2C[C@H](C)[C@H]3CC[C@](C)(C#N)[C@H]4CC[C@@H]([C@@H]2[C@H]34)[C@]1(C)N=C=O
IC50 (KB): 4.3 µg/mL (≈ 12.6 µM) | IC50 (Plasmodium falciparum [1]): 0.0032 µg/mL (≈ 0.0094 µM) | selectivity ratio [4]: 1340 | IC50 (Plasmodium falciparum [2]): 0.0025 µg/mL (≈ 0.00734 µM) | selectivity ratio [3]: 1710

Compound: C=C1CC[C@H]2[C@H]3[C@H](CC[C@]2(C)C#N)[C@@H](C)C[C@@H](CC(C)(C)N=C=S)[C@H]13
IC50 (KB): > 20 µg/mL | IC50 (Plasmodium falciparum [1]): 0.47 µg/mL (≈ 1.32 µM) | selectivity ratio [4]: > 42.6 | IC50 (Plasmodium falciparum [2]): 0.109 µg/mL (≈ 0.306 µM) | selectivity ratio [3]: > 183

Compound: C=C1CC[C@H]2[C@H]3[C@H](CC[C@]2(C)C#N)[C@@H](C)C[C@H](C=C(C)C)[C@H]13
IC50 (KB): 3.2 µg/mL (≈ 10.8 µM) | IC50 (Plasmodium falciparum [1]): 0.0141 µg/mL (≈ 0.0474 µM) | selectivity ratio [4]: 230 | IC50 (Plasmodium falciparum [2]): 0.0093 µg/mL (≈ 0.0313 µM) | selectivity ratio [3]: 340

Compound: O=Cc1ccc(O)cc1 [4-HYDROXYBENZALDEHYDE]
IC50 (KB): > 20 µg/mL | IC50 (Plasmodium falciparum [1]): 7.33 µg/mL (≈ 60 µM) | selectivity ratio [4]: > 2.7 | IC50 (Plasmodium falciparum [2]): 5.56 µg/mL (≈ 45.5 µM) | selectivity ratio [3]: > 3.6

Compound: C[C@@H]1CC[C@H]2[C@@H](C)C(=O)O[C@@H]3O[C@@]4(C)CC[C@@H]1[C@]32OO4 [ARTEMISININ]
IC50 (KB): > 20 µg/mL | IC50 (Plasmodium falciparum [2]): 0.0021 µg/mL (≈ 0.00744 µM)

Compound: [C-]#[N+][C@]1(C)[C@H](C)C[C@@H]2C[C@H](C)[C@H]3CC[C@](C)([N+]#[C-])[C@H]4CC[C@H]1[C@@H]2[C@H]34 [DIISOCYANOADOCIANE]
IC50 (KB): 4.7 µg/mL (≈ 14.5 µM) | selectivity ratio [4]: 1000 | IC50 (Plasmodium falciparum [2]): 0.0043 µg/mL (≈ 0.0133 µM) | selectivity ratio [3]: 1100

Compound: OC(c1cc(C(F)(F)F)nc2c(C(F)(F)F)cccc12)C1CCCCN1 (stereo not drawn) [MEFLOQUINE]
selectivity ratio [4]: 490 | selectivity ratio [3]: 970

Compound: C=C[C@H]1CN2CC[C@H]1C[C@H]2[C@H](O)c1ccnc2ccc(OC)cc12 [QUININE]
IC50 (KB): > 20 µg/mL | selectivity ratio [4]: > 1800 | IC50 (Plasmodium falciparum [2]): 0.0546 µg/mL (≈ 0.168 µM) | selectivity ratio [3]: > 370
